As usually defined, the IC50 is the midpoint of a concentration-inhibition curve. Read a low IC50 as inhibition by little substance.

This test deals with T1, human TLR8 (Homo sapiens, UniProt Q9NR97).
T1 construct: host or cells: HEK-Blue cells
T1 sequence (Q9NR97 27-1041): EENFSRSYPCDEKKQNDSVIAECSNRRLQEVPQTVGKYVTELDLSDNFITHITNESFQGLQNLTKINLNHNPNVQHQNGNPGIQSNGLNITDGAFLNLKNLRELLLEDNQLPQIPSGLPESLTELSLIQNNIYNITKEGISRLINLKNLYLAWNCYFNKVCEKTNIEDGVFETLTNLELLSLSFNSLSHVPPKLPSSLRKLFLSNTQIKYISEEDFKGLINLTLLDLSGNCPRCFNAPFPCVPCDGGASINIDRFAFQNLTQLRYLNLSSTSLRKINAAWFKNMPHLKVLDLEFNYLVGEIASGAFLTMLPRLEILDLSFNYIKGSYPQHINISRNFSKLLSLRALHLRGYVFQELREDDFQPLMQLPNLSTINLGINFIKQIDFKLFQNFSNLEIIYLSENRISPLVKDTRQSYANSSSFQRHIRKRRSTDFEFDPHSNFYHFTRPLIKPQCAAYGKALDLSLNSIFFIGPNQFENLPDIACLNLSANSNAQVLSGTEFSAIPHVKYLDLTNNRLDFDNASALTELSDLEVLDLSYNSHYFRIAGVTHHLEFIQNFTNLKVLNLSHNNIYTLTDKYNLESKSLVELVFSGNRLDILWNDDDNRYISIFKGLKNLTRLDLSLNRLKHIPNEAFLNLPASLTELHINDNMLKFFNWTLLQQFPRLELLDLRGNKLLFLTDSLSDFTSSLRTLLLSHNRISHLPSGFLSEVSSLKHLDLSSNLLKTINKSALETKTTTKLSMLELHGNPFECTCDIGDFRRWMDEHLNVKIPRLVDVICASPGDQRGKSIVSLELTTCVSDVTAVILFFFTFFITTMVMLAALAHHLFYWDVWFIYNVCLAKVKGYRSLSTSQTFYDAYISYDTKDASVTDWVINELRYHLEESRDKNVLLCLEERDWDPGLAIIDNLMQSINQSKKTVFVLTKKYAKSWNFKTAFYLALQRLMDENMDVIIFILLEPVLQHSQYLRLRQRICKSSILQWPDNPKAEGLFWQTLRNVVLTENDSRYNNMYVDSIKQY
As to the kind of experiment: TLR8 inhibition reporter assay (HEK-Blue cells, SEAP reporter, R848 stimulation). It counts as cell-based. Particulars: HEK-Blue cells overexpressing human TLR8, R848 15.9 μM. In outline:
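22 h, 37° C, 5% CO2 incubation; compounds 0.05 nM-50 μM final; TLR7 cells 15000/well, TLR8 20,000/well. Readout: SEAP via HEK-Blue Detection medium. % inhibition = signal reduction versus agonist + DMSO wells, referenced to known inhibitor.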
In general terms: A reporter such as luciferase makes a cellular process visible.
As to `COc1ccc(-c2[nH]c3ccc(C4CCN(C(=O)[C@@H]5CCCN5C(C)=O)CC4)cc3c2CC(F)(F)F)cc1OC` [Example 336, (S)-1-(2-(4-(2-(3,4-dimethoxyphenyl)-3-(2,2,2-trifluoroethyl)-1H-indol-5-yl)piperidine-1-carbonyl)pyrrolidin-1-yl)ethan-1-one], the IC50 was found to be 697 nM. This counts as sub-micromolar.

Take `COc1ccc(-c2[nH]c3ccc(C4CCN(C(=O)Cc5nnn[nH]5)CC4)cc3c2CC(F)(F)F)cc1OC` [Example 341, 1-(4-(2-(3,4-dimethoxyphenyl)-3-(2,2,2-trifluoroethyl)-1H-indol-5-yl)piperidin-1-yl)-2-(1H-tetrazol-5-yl)ethan-1-one]: inhibition was half-maximal at 9390 nM (IC50).

As to `COc1ccc(-c2[nH]c3ccc(C4CCN(C(=O)CCc5cccnc5)CC4)cc3c2CC(F)(F)F)cc1OC` [Example 348, 1-(4-(2-(3,4-dimethoxyphenyl)-3-(2,2,2-trifluoroethyl)-1H-indol-5-yl)piperidin-1-yl)-3-(pyridin-3-yl) propan-1-one], the IC50 came out at 1420 nM.

Take `COc1ccc(-c2[nH]c3ccc(C4CCN(CC(=O)N5CCC(N6CCN(C)CC6)CC5)CC4)cc3c2CC(F)(F)F)cc1OC` [Example 363, 2-(4-(2-(3,4-dimethoxyphenyl)-3-(2,2,2-trifluoroethyl)-1H-indol-5-yl)piperidin-1-yl)-1-(4-(4-methylpiperazin-1-yl)piperidin-1-yl) ethan-1-one]: the half-maximal inhibitory concentration (IC50) turned out to be 44 nM.

`COc1ccc(-c2[nH]c3ccc(C4CCN(CC(=O)N5CCC(N6CCCCC6)CC5)CC4)cc3c2CC(F)(F)F)cc1OC` [Example 359, 1-([1,4′-bipiperidin]-1′-yl)-2-(4-(2-(3,4-dimethoxyphenyl)-3-(2,2,2-trifluoroethyl)-1H-indol-5-yl)piperidin-1-yl)ethan-1-one] showed a 50% inhibitory concentration (IC50) of 63 nM. The IC50 values of the last two molecules are within 1.5-fold of each other.

As for `COc1ccc(-c2[nH]c3ccc(C4CCN(C(=O)CCC(F)(F)F)CC4)cc3c2CC(F)(F)F)cc1OC` [Example 350, 1-(4-(2-(3,4-dimethoxyphenyl)-3-(2,2,2-trifluoroethyl)-1H-indol-5-yl)piperidin-1-yl)-4,4,4-trifluorobutan-1-one], half-maximal inhibition (IC50) required 2050 nM.

As for `COc1ccc(-c2[nH]c3ccc(C4CCN(CC(=O)NCCN5CCCC5)CC4)cc3c2CC(F)(F)F)cc1OC` [Example 375, 2-(4-(2-(3,4-dimethoxyphenyl)-3-(2,2,2-trifluoroethyl)-1H-indol-5-yl)piperidin-1-yl)-N-(2-(pyrrolidin-1-yl)ethyl)acetamide], the IC50 is 117 nM.

In turn, `COc1ccc(-c2[nH]c3ccc(C4CCN(C(=O)Cc5c[nH]c6ccccc56)CC4)cc3c2CC(F)(F)F)cc1OC` [Example 332, 1-(4-(2-(3,4-dimethoxyphenyl)-3-(2,2,2-trifluoroethyl)-1H-indol-5-yl)piperidin-1-yl)-2-(1H-indol-3-yl)ethan-1-one] returned a half-inhibitory concentration (IC50) of 4110 nM. Compared with the last molecule, the IC50 is about 35-fold higher.

As for `COc1ccc(-c2[nH]c3ccc(C4CCN(C(=O)CS(C)(=O)=O)CC4)cc3c2CC(F)(F)F)cc1OC` [Example 347, 1-(4-(2-(3,4-dimethoxyphenyl)-3-(2,2,2-trifluoroethyl)-1H-indol-5-yl)piperidin-1-yl)-2-(methylsulfonyl)ethan-1-one], the half-inhibitory concentration (IC50) amounted to 767 nM.

In turn, `COc1ccc(-c2[nH]c3ccc(C4CCN(CC(=O)NCCC5CCCN5C)CC4)cc3c2CC(F)(F)F)cc1OC` (stereo not drawn) [Example 360, 2-(4-(2-(3,4-dimethoxyphenyl)-3-(2,2,2-trifluoroethyl)-1H-indol-5-yl)piperidin-1-yl)-N-(2-(1-methylpyrrolidin-2-yl)ethyl) acetamide] had an IC50 of 43 nM.

The molecule `COc1ccc(-c2[nH]c3ccc(C4CCN(CC(=O)NCCCCN5CCCC5)CC4)cc3c2CC(F)(F)F)cc1OC` [Example 388, 2-(4-(2-(3,4-dimethoxyphenyl)-3-(2,2,2-trifluoroethyl)-1H-indol-5-yl)piperidin-1-yl)-N-(4-(pyrrolidin-1-yl)butyl)acetamide] displayed a half-inhibitory concentration (IC50) of 40 nM.

Take `COc1ccc(-c2[nH]c3ccc(C4CCN(CC(=O)Nc5cc(C(C)(C)C)[nH]n5)CC4)cc3c2CC(F)(F)F)cc1OC` [Example 387, N-(5-(tert-butyl)-1H-pyrazol-3-yl)-2-(4-(2-(3,4-dimethoxyphenyl)-3-(2,2,2-trifluoroethyl)-1H-indol-5-yl)piperidin-1-yl)acetamide]: the IC50 came to 587 nM.

`COc1ccc(-c2[nH]c3ccc(C4CCN(C(=O)CNC[C@@H](O)CO)CC4)cc3c2C)cc1OC` [Example 405, (R)-2-((2,3-dihydroxypropyl)amino)-1-(4-(2-(3,4-dimethoxyphenyl)-3-methyl-1H-indol-5-yl)piperidin-1-yl)ethan-1-one]: the IC50 turned out to be 29200 nM.

`COc1ccc(-c2[nH]c3ccc(C4CCNCC4F)cc3c2C(C)C)cc1OC` (single isomer, unassigned) [Example 324, 2-(3,4-dimethoxyphenyl)-5-(3-fluoropiperidin-4-yl)-3-isopropyl-1H-indole] came in with an IC50 of 20 nM. Compared with the last molecule, the IC50 is about 1500-fold lower.

`COc1ccc(-c2[nH]c3ccc(C4CCN(CC(=O)N5CCC[C@@H]5CO)CC4)cc3c2CC(F)(F)F)cc1OC` [Example 371, (R)-2-(4-(2-(3,4-dimethoxyphenyl)-3-(2,2,2-trifluoroethyl)-1H-indol-5-yl)piperidin-1-yl)-1-(2-(hydroxymethyl)pyrrolidin-1-yl)ethan-1-one] displayed an IC50 of 52 nM.

`COc1ccc(-c2[nH]c3ccc(C4CCN(C(=O)CCCN(C)C)CC4)cc3c2CC(F)(F)F)cc1OC` [Example 351, 1-(4-(2-(3,4-dimethoxyphenyl)-3-(2,2,2-trifluoroethyl)-1H-indol-5-yl)piperidin-1-yl)-4-(dimethylamino)butan-1-one] showed a half-maximal inhibitory concentration (IC50) of 57 nM.

In turn, `COc1ccc(-c2[nH]c3ccc(C4CCN(CC(=O)N(C)C)CC4)cc3c2CC(F)F)cc1OC` [Example 400, 2-(4-(3-(2,2-difluoroethyl)-2-(3,4-dimethoxyphenyl)-1H-indol-5-yl)piperidin-1-yl)-N,N-dimethylacetamide] registered an IC50 of 110 nM. Compared with the last molecule, the IC50 is about 1.9-fold higher.

As for `COc1ccc(-c2[nH]c3ccc(C4CCN(CC(=O)N5CCN(c6ccncc6)CC5)CC4)cc3c2CC(F)(F)F)cc1OC` [Example 366, 2-(4-(2-(3,4-dimethoxyphenyl)-3-(2,2,2-trifluoroethyl)-1H-indol-5-yl)piperidin-1-yl)-1-(4-(pyridin-4-yl)piperazin-1-yl) ethan-1-one], the IC50 came to 23 nM.

`COc1ccc(-c2[nH]c3ccc(C4CCNCC4F)cc3c2C(C)C)cc1OC` (racemic) [Example 319, 2-(3,4-dimethoxyphenyl)-5-(3-fluoropiperidin-4-yl)-3-isopropyl-1H-indole] displayed an IC50 of 46 nM. This IC50 is about 2-fold higher than that of the molecule before.

For the molecule `CCC(CC)NC(=O)CN1CCC(c2ccc3[nH]c(-c4ccc(OC)c(OC)c4)c(CC(F)(F)F)c3c2)CC1` [Example 378, 2-(4-(2-(3,4-dimethoxyphenyl)-3-(2,2,2-trifluoroethyl)-1H-indol-5-yl)piperidin-1-yl)-N-(pentan-3-yl)acetamide], the 50% inhibitory concentration (IC50) turned out to be 451 nM. Compared with the last molecule, the IC50 is about 9.8-fold higher.

As to `COc1ccc(-c2[nH]c3ccc(C4CCN(C(=O)C[C@H](C)O)CC4)cc3c2CC(F)(F)F)cc1OC` [Example 352, (S)-1-(4-(2-(3,4-dimethoxyphenyl)-3-(2,2,2-trifluoroethyl)-1H-indol-5-yl)piperidin-1-yl)-3-hydroxybutan-1-one], it took 765 nM to reach half-maximal inhibition (IC50).

For the origin of these results see patent US11180474B2 (BRISTOL-MYERS SQUIBB COMPANY, priority 2016, dated 2021).
